# From patent US12193456B2, “Early life nutrition” (DSM IP ASSETS B.V., priority 2019, dated 2025)
# Legend:
# [1] = Calf physiological parameters (bodyweight, average daily gain); format: in vivo, calves (Holstein, Montbéliarde, Holstein×Montbéliarde); conditions: for effect on host animal performance (in words): early life treatment, birth to week 14
# Procedure: (§1) At birth 18 female Holstein (n=12), Montbéliarde (n=4) and Holstein×Montbéliarde (n=2) calves were randomly assigned to either a treatment group (3 mg 3-NOP (active)/kg BW) or control group (placebo supplement i.e. without 3-NOP but with silica and propylene glycol). 3-NOP was supplemented in the form of a 3-NOP powdered formulation (10 wt.-% of 3-NOP admixed with silica and propylene glycol) such that breed distribution and birthweight were balanced across groups. Treatment was administered daily from birth until three weeks post-weaning (week 14) (admixed in a small volume of water and delivered by an oral gavage). Calves were weighed weekly. Milk and concentrate intake prior to weaning was recorded using automated feeders. Animals were group housed in a single pen following weaning. Samples of rumen liquid were collected at week 1, 4, 11, 14, 23 and 60 weeks of life and DNA from these samples of rumen liquid content were extracted and subjected to Illumina MiSeq sequencing. Methane emissions from the calves were measured using the GreenFeed system (C-Lock, Rapid City, SD USA) from weaning at week 11 to week 23 and later from week 56 to 60 of life.
# calves = experiment: Methane emissions from calves measured using the GreenFeed system after early-life supplementation; format: in vivo, calves (Holstein, Montbéliarde, Holstein×Montbéliarde); conditions: for methane emissions: n = 10
# Text: The methane emissions respectively methane reductions as referred to herein can be measured in individual animals in metabolic chambers by methods known in the art (Grainger et al., 2007 J. Dairy Science; 90: 2755-2766). Moreover, it can also be assessed at barn level by an emerging technology using laser beam (McGinn et al., 2009, Journal of Environ-mental Quality; 38: 1796-1802). Alternatively, methane produced by a ruminant can also be assessed with the GreenFeed system (C-Lock, Rapid City, SD USA), which method is preferred.
# as §1
smiles,measurement,setting,value
"O=[N+]([O-])OCCCO [3-nitrooxypropanol, 3-Nitrooxypropanol]",Bodyweight (BW) of calves,"[1]; age 0 weeks, treatment group n = 10",41.6 kg
same,Bodyweight (BW) of calves,"[1]; age 11 weeks, treatment group n = 10",102.2 kg
same,Bodyweight (BW) of calves,"[1]; age 14 weeks, treatment group n = 10",119.5 kg
same,Bodyweight (BW) of calves,"[1]; age 17 weeks, treatment group n = 10",134.9 kg
same,Bodyweight (BW) of calves,"[1]; age 20 weeks, treatment group n = 10",151.8 kg
same,Bodyweight (BW) of calves,"[1]; age 23 weeks, treatment group n = 10",189.5 kg
same,Bodyweight (BW) of calves,"[1]; age 56 to 60 weeks, treatment group n = 10",339 kg
same,effect on host animal performance (in words),[1],no detrimental effects
same,effect on host animal performance (in words),[1]; listed as 3-NOP,no adverse effect on performance
same,Average Daily Gain (ADG),"[1]; from week 0 to 23 weeks of life, treatment group n = 10",0.79 kg/day
same,methane emissions of treated animals (in words),"calves; after 60 weeks of age, supplementation from birth until 14 weeks of age",lower methane emissions
same,methane emissions,"calves; age 11 weeks (weaning), during daily supplementation, 3 mg 3-NOP/kg BW oral gavage from birth",45.0 g/day
same,methane emissions,"calves; age 14 weeks, end of daily supplementation, 3 mg 3-NOP/kg BW oral gavage from birth",63.4 g/day
same,methane emissions,"calves; age 17 weeks, no supplementation (stopped week 14)",68.2 g/day
same,methane emissions,"calves; age 20 weeks, no supplementation (stopped week 14)",88.9 g/day
same,methane emissions,"calves; age 23 weeks, no supplementation (stopped week 14)",97.13 g/day
same,methane emissions,"calves; age 56 to 60 weeks, no supplementation (stopped week 14)",193.0 g/day
same,overall reduction in methane emissions (g CH4/d),"calves; throughout the post-weaning period (week 11 to 23), vs control, P=0.03, treatment ceased three weeks post-weaning",11.6%
same,overall reduction in methane emissions,"calves; weeks 56 to 60 of life, vs control, P<0.05, no supplementation since week 14",about 19%
